# Source: patent US11274092B2, “Potassium channel inhibitors” (ACESION PHARMA ApS, priority 2016, dated 2022)
# pIC50: −log10 of the molar value.
# Biological target: T1, human SK3 channel (hKCa2.3) (Homo sapiens, UniProt Q9UGI6)
# T1 construct: expressed in transfected cells
# Test: Automated whole cell patch-clamp (QPatch 16 HT), inhibition of SK3 current
# Type: cell-based
# Details: HEK-293 cells stably expressing hKCa2.3; symmetrical K+ solutions, free calcium 400 nM; effects normalized to N-methyl bicuculline
# Protocol: Automated whole cell patch-clamp recordings were performed using a QPatch 16 HT system and single-hole Qplates (Biolin Scientific, Sophion, Denmark) on HEK-293 cells stably expressing the human SK3 channel (hKCa2.3). Cells were cultured and prepared for experiments using normal cell culturing procedures. A total of 4-5 million cells were used per experiment. The Qpatch automatically generates giga sealing, whole-cell formation, compound application and recording of current. hKCa2.3 currents were recorded in symmetrical K^+ solutions, with an intracellular solution consisting of in mM: KCl 108; KOH/EGTA (ethylene glycol-bis(2-aminoethylether)-N,N,N′,N′-tetraacetic acid) 31.25/10; CaCl2) 8.1; MgCl2 1.2; HEPES (2-[4-(2-hydroxyethyl)piperazin-1-yl]ethanesulfonic acid) 10; KOH 15, pH adjusted to pH=7.2 with HCl. The free calcium concentration was calculated to 400 nM. The extracellular solution consisted of in mM: KCl 150; CaCl2) 0.1; MgCl2 3; HEPES 10; Glucose 10, pH=7.4 with KOH. The cells were held at 0 mV and hKCa2.3 currents were elicited by a linear voltage ramp from […] (200 ms in duration) applied every 5th second. The compound application protocol consisted of 12 recording periods lasting from 50-200 s: 1) Baseline recordings in extracellular solution; 2) Application of the positive control N-methyl bicuculline (100 μM), which is characterized by full efficacy, fast on- and off-rate; 3-4) Wash-out; 5-9) Increasing concentrations of test compound to establish an IC50 value; 10-11) Wash-out; 12) positive control with compound NS8593 (N-[(1R)-1,2,3,4-tetrahydro-1-naphthalenyl]-1H-benzimidazol-2-amine) (1 μM). Data were sampled at 10 kHz, 4th order Bessel filter, cut-off frequency 3 kHz. Currents were compensated for run-down. Potency was quantified as the concentration needed to inhibit half of the SK channel activity and reported as an IC50 value. All effects of compounds of the present invention as tested were normalized to the observed inhibitory effect of N-methyl bicuculline.
row,pIC50,Structure (SMILES)
1,> 5.00,"CCN(CCO)C(=O)CC(Nc1nc2ccccc2[nH]1)c1ccc(C)c(Cl)c1 (stereo not shown) [Example 20, 3-[(1H-1,3-benzodiazol-2-yl)amino]-3-(3-chloro-4-methylphenyl)-N-ethyl-N-(2-hydroxyethyl)propanamide]"
2,4.00 to 5.00,"NCCNC(=O)C(Nc1nc2ccccc2[nH]1)c1cccc(C(F)(F)F)c1 (stereo not shown) [Example 24, N-(2-aminoethyl)-2-[(1H-1,3-benzodiazol-2-yl)amino]-2-[3-(trifluoromethyl)phenyl]acetamide]"
3,> 5.00,"COCCNC(=O)CC(Nc1nc2ccccc2[nH]1)c1cc(C)c(F)c(C)c1 (stereo not shown) [Example 80, 3-[(1H-1,3-benzodiazol-2-yl)amino]-3-(4-fluoro-3,5-dimethylphenyl)-N-(2-methoxyethyl)propanamide]"
4,> 5.00,"O=C(CC(Nc1nc2ccccc2[nH]1)c1cccc(OC(F)(F)F)c1)NCc1ccon1 (stereo not shown) [Example 88, 3-[(1H-1,3-benzodiazol-2-yl)amino]-N-(1,2-oxazol-3-ylmethyl)-3-[3-(trifluoromethoxy)phenyl]propanamide]"
5,> 5.00,"COC(=O)CNC(=O)CC(Nc1nc2ccccc2[nH]1)c1cccc(C(F)(F)F)c1 (stereo not shown) [Example 59, Methyl 2-{3-[(1H-1,3-benzodiazol-2-yl)amino]-3-[3-(trifluoromethyl)phenyl]propanamido}acetate]"
6,> 5.00,"Cc1cc(C(CC(=O)NCC#N)Nc2nc3ccccc3[nH]2)cc(C)c1F (stereo not shown) [Example 86, 3-[(1H-1,3-benzodiazol-2-yl)amino]-N-(cyanomethyl)-3-(4-fluoro-3,5-dimethylphenyl)propanamide]"
7,4.00 to 5.00,"CCN(CC#N)C(=O)CC(Nc1nc2c(CCO)cccc2[nH]1)c1cccc(C(F)(F)F)c1 (stereo not shown) [Example 52, N-(cyanomethyl)-N-ethyl-3-{[4-(2-hydroxyethyl)-1H-1,3-benzodiazol-2-yl]amino}-3-[3-(trifluoromethyl)phenyl]propanamide]"
8,> 5.00,"CN(CC#N)C(=O)CC(Nc1nc2ccccc2[nH]1)c1cccc(C(F)(F)F)c1 (single isomer, unassigned; (-)) [Example 56a, (−)3-[(1H-1,3-benzodiazol-2-yl)amino]-N-(cyanomethyl)-N-methyl-3-[3-(trifluoromethyl)phenyl]propanamide]"
9,> 5.00,"O=C(CC(Nc1nc2ccccc2[nH]1)c1cccc(SC(F)(F)F)c1)NCCOC(F)(F)F (stereo not shown) [Example 81, 3-[(1H-1,3-benzodiazol-2-yl)amino]-N-[2-(trifluoromethoxy)ethyl]-3-{3-[(trifluoromethyl)sulfanyl]phenyl}propanamide]"
10,> 5.00,"CN(CCCO)C(=O)CC(Nc1nc2ccccc2[nH]1)c1cccc(C(F)(F)F)c1 (stereo not shown) [Example 17, 3-[(1H-1,3-benzodiazol-2-yl)amino]-N-(3-hydroxypropyl)-N-methyl-3-[3-(trifluoromethyl)phenyl]propanamide]"
11,4.00 to 5.00,"O=C(CC(Nc1nc2ccccc2[nH]1)c1cccc(C(F)(F)F)c1)NCCCO (stereo not shown) [Example 16, 3-[(1H-1,3-benzodiazol-2-yl)amino]-N-(3-hydroxypropyl)-3-[3-(trifluoromethyl)phenyl]propanamide]"
12,> 5.00,"CCN(CCO)C(=O)CC(Nc1nc2ccccc2[nH]1)c1cccc(C(F)(F)F)c1 (single isomer, unassigned; (-)) [Example 41a, (−)3-[(1H-1,3-benzodiazol-2-yl)amino]-N-ethyl-N-(2-hydroxyethyl)-3-[3-(trifluoromethyl)phenyl]propanamide]"
13,> 5.00,"CCc1cc(C(CC(=O)N(CC)CCO)Nc2nc3ccccc3[nH]2)ccc1F (single isomer, unassigned; (-)) [Example 65a, (−)3-[(1H-1,3-benzodiazol-2-yl)amino]-N-ethyl-3-(3-ethyl-4-fluorophenyl)-N-(2-hydroxyethyl)propanamide]"
14,4.00 to 5.00,"CCN(CCO)C(=O)CC(Nc1nc2c(CO)cccc2[nH]1)c1cccc(C(F)(F)F)c1 (stereo not shown) [Example 49, N-ethyl-N-(2-hydroxyethyl)-3-{[4-(hydroxymethyl)-1H-1,3-benzodiazol-2-yl]amino}-3-[3-(trifluoromethyl)phenyl]propanamide]"
15,4.00 to 5.00,"CN(C)CCN(C)C(=O)CC(Nc1nc2ccccc2[nH]1)c1cccc(C(F)(F)F)c1 (stereo not shown) [Example 2, 3-[(1H-1,3-benzodiazol-2-yl)amino]-N-[2-(dimethylamino)ethyl]-N-methyl-3-[3-(trifluoromethyl)phenyl]propanamide]"
16,> 5.00,"CCN(CC(N)=O)C(=O)CC(Nc1nc2c(CO)cccc2[nH]1)c1cccc(C(F)(F)F)c1 (stereo not shown) [Example 54, N-(carbamoylmethyl)-N-ethyl-3-{[4-(hydroxymethyl)-1H-1,3-benzodiazol-2-yl]amino}-3-[3-(trifluoromethyl)phenyl]propanamide]"
17,> 5.00,"COCCNC(=O)CC(Nc1nc2ccccc2[nH]1)c1cccc(SC)c1 (stereo not shown) [Example 92, 3-[(1H-1,3-benzodiazol-2-yl)amino]-N-(2-methoxyethyl)-3-[3-(methylsulfanyl)phenyl]propanamide]"
18,4.00 to 5.00,"CN1CCN(C(=O)CC(Nc2nc3ccccc3[nH]2)c2cccc(C(F)(F)F)c2)CC1=O (stereo not shown) [Example 11, 4-{3-[(1H-1,3-benzodiazol-2-yl)amino]-3-[3-(trifluoromethyl)phenyl]propanoyl}-1-methylpiperazin-2-one]"
19,4.00 to 5.00,"CN(C)CCN(C)C(=O)C(Nc1nc2ccccc2[nH]1)c1cccc(C(F)(F)F)c1 (stereo not shown) [Example 25, 2-[(1H-1,3-benzodiazol-2-yl)amino]-N-[2-(dimethylamino)ethyl]-N-methyl-2-[3-(trifluoromethyl)phenyl]acetamide]"
20,> 5.00,"O=C(CC(Nc1nc2c(CO)cccc2[nH]1)c1cccc(C(F)(F)F)c1)NCCOC(F)(F)F (stereo not shown) [Example 94, 3-{[4-(hydroxymethyl)-1H-1,3-benzodiazol-2-yl]amino}-N-[2-(trifluoromethoxy)ethyl]-3-[3-(trifluoromethyl)phenyl]propanamide]"
21,4.00 to 5.00,"CN(C)C1CN(C(=O)C(Nc2nc3ccccc3[nH]2)c2cccc(C(F)(F)F)c2)C1 (stereo not shown) [Example 28, 2-[(1H-1,3-benzodiazol-2-yl)amino]-1-[3-(dimethylamino)azetidin-1-yl]-2-[3-(trifluoromethyl)phenyl]ethan-1-one]"
22,4.00 to 5.00,"O=C(CC(Nc1nc2ccccc2[nH]1)c1cccc(C(F)(F)F)c1)N1CC[C@H](O)C1 (stereo partly drawn) [Example 15, 3-[(1H-1,3-benzodiazol-2-yl)amino]-1-[(3S)-3-hydroxypyrrolidin-1-yl]-3-[3-(trifluoromethyl)phenyl]propan-1-one]"
23,> 5.00,"CN(C)C(=O)CNC(=O)CC(Nc1nc2ccccc2[nH]1)c1cccc(C(F)(F)F)c1 (stereo not shown) [Example 22, 3-[(1H-1,3-benzodiazol-2-yl)amino]-N-[(dimethylcarbamoyl)methyl]-3-[3-(trifluoromethyl)phenyl]propanamide]"
24,> 5.00,"O=C(CC(Nc1nc2ccccc2[nH]1)c1cccc(C(F)(F)F)c1)NCc1cncnc1 (stereo not shown) [Example 78, 3-[(1H-1,3-benzodiazol-2-yl)amino]-N-(pyrimidin-5-ylmethyl)-3-[3-(trifluoromethyl)phenyl]propanamide]"
25,> 5.00,"COC(=O)CNC(=O)CC(Nc1nc2ccccc2[nH]1)c1cccc(C(F)(F)F)c1 (single isomer, unassigned; (-)) [Example 59a, (−)Methyl 2-{3-[(1H-1,3-benzodiazol-2-yl)amino]-3-[3-(trifluoromethyl)phenyl]propanamido}acetate]"
